Experimental data as given in US12343326B2, “Psychoactive medicines and their use for treating psychiatric and neurological conditions and disorders” (Transcend Therapeutics, Inc., priority 2021, dated 2025).

Assays:
Test in all cases: β-arrestin based GPCR screen (PathHunter / GPCRmax), agonist mode
Assay type in all cases: cell-based
Parameters in all cases: host or cells: PathHunter cell lines
168 GPCRs [1] = target: 168 GPCRs (Homo sapiens, UniProt P49146); conditions: NPY2R
Protocol: (§1) For agonist determination, cells were incubated with sample to induce response. […] Vehicle concentration was 1%.

168 GPCRs [2] = target: 168 GPCRs (Homo sapiens, UniProt O43193); conditions: MLNR
Protocol: as §1

168 GPCRs [3] = target: 168 GPCRs (Homo sapiens, UniProt Q99788); conditions: CMKLR1, Agonist
Protocol: as §1

168 GPCRs [4] = target: 168 GPCRs (Homo sapiens, UniProt P49238)
Protocol: as §1

168 GPCRs [5] = target: 168 GPCRs (Homo sapiens, UniProt P35462)
Protocol: as §1

168 GPCRs [6] = target: 168 GPCRs (Homo sapiens, UniProt P21452)
Protocol: as §1

168 GPCRs [7] = target: 168 GPCRs (Homo sapiens, UniProt P33032); conditions: MC5R
Protocol: as §1

168 GPCRs [8] = target: 168 GPCRs (Homo sapiens, UniProt P25116); conditions: F2R
Protocol: as §1

168 GPCRs [9] = target: 168 GPCRs (Homo sapiens, UniProt P48146)
Protocol: as §1

168 GPCRs [10] = target: 168 GPCRs (Homo sapiens, UniProt P30872)
Protocol: as §1

168 GPCRs [11] = target: 168 GPCRs (Homo sapiens, UniProt P08912); conditions: CHRM5, Agonist
Protocol: as §1

168 GPCRs [12] = target: 168 GPCRs (Homo sapiens, UniProt P32241)
Protocol: as §1

168 GPCRs [13] = target: 168 GPCRs (Homo sapiens, UniProt P47871); conditions: GCGR
Protocol: as §1

168 GPCRs [14] = target: T1, 168 GPCRs (Homo sapiens, UniProt P24530); conditions: EDNRB
T1 sequence (P24530 27-442): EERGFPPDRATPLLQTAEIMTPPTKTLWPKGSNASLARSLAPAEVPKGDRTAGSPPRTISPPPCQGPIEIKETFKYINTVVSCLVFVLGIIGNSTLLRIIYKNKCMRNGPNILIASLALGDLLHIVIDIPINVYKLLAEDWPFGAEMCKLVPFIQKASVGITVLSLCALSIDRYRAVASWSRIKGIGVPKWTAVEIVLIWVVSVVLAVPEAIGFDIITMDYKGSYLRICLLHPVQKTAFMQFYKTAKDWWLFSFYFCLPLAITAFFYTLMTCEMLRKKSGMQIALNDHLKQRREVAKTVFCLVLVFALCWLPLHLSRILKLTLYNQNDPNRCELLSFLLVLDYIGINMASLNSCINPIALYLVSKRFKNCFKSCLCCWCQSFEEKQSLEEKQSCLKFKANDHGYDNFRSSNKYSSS
Protocol: as §1

168 GPCRs [15] = target: 168 GPCRs (Homo sapiens, UniProt Q16581); conditions: C3AR1, Agonist
Protocol: as §1

168 GPCRs [16] = target: 168 GPCRs (Homo sapiens, UniProt P46663); conditions: BDKRB1, Agonist
Protocol: as §1

168 GPCRs [17] = target: T2, 168 GPCRs (Homo sapiens, UniProt Q96RI0)
T2 sequence (Q96RI0 18-385): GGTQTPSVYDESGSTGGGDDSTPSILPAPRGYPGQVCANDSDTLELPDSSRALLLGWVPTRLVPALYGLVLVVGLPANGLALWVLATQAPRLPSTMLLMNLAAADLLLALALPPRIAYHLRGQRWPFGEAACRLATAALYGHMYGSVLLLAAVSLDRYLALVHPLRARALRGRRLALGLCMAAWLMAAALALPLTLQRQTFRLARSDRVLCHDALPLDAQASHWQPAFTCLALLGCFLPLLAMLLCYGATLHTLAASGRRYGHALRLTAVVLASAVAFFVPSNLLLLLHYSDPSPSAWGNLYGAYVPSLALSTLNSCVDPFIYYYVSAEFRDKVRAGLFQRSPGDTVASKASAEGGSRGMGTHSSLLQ
Protocol: as §1

Chain of 168 GPCRs (Homo sapiens, UniProt P30872) (P30872 whole entry): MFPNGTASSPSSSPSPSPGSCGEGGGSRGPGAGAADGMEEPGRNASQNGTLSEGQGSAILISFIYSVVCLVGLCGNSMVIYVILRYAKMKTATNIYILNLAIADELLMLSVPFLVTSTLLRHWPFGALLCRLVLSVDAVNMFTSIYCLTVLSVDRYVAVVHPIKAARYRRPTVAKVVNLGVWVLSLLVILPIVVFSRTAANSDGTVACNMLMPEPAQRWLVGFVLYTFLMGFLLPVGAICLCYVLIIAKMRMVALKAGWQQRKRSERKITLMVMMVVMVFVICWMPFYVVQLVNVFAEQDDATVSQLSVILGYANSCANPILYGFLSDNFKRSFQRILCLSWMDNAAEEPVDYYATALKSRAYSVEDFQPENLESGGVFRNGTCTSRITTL
Chain of 168 GPCRs (Homo sapiens, UniProt P48146) (P48146 whole entry): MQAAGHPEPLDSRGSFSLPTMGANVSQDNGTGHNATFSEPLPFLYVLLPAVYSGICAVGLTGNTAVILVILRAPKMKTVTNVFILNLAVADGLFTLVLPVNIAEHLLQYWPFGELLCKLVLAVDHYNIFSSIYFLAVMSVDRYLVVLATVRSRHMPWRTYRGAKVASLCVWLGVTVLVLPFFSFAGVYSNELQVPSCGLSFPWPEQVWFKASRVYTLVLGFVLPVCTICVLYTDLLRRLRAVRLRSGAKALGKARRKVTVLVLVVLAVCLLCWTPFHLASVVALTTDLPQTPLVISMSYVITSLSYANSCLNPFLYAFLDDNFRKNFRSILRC
Chain of 168 GPCRs (Homo sapiens, UniProt P49238) (P49238 whole entry): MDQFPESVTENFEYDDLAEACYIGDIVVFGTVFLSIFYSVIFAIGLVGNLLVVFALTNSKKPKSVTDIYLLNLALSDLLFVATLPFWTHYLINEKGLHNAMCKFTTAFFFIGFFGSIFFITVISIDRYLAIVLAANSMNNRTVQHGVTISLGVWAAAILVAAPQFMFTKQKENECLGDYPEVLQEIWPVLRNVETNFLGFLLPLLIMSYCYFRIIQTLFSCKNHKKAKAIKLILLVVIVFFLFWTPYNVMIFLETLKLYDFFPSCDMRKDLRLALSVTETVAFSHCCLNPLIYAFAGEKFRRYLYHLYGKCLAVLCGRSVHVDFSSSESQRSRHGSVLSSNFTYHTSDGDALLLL
Chain of 168 GPCRs (Homo sapiens, UniProt P49146) (P49146 whole entry): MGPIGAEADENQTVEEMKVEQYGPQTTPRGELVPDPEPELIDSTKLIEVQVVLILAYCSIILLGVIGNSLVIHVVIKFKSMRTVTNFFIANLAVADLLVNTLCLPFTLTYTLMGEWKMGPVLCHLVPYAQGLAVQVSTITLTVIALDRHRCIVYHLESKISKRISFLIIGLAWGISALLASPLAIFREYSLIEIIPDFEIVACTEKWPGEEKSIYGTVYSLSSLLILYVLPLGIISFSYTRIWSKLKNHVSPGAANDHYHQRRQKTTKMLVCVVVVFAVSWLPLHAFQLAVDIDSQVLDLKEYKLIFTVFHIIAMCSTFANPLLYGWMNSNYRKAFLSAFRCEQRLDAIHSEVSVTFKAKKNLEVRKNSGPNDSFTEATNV
Chain of 168 GPCRs (Homo sapiens, UniProt P47871) (P47871 26-477): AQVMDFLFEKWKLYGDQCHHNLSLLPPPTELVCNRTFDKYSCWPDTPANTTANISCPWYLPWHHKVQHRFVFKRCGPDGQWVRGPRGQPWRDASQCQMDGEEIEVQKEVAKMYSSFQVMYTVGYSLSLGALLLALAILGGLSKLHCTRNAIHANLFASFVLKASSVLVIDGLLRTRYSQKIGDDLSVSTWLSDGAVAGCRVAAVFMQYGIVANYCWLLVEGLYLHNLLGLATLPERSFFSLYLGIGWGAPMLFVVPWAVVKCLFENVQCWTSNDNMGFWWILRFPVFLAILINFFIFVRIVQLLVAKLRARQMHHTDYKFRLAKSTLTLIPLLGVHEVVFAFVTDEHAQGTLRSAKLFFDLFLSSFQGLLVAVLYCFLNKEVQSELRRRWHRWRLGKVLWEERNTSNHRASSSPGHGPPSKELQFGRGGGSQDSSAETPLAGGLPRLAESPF
Chain of 168 GPCRs (Homo sapiens, UniProt P21452) (P21452 whole entry): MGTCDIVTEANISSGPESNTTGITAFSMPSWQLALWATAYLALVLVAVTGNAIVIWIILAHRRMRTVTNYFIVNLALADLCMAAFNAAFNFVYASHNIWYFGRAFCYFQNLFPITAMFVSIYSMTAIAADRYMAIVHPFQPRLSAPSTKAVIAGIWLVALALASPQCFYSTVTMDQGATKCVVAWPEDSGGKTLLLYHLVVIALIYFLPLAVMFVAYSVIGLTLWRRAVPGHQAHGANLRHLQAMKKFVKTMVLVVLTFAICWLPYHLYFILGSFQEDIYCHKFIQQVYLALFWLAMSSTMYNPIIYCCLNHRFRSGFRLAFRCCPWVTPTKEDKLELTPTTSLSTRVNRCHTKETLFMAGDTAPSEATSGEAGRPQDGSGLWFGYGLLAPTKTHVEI
Chain of 168 GPCRs (Homo sapiens, UniProt P46663) (P46663 whole entry): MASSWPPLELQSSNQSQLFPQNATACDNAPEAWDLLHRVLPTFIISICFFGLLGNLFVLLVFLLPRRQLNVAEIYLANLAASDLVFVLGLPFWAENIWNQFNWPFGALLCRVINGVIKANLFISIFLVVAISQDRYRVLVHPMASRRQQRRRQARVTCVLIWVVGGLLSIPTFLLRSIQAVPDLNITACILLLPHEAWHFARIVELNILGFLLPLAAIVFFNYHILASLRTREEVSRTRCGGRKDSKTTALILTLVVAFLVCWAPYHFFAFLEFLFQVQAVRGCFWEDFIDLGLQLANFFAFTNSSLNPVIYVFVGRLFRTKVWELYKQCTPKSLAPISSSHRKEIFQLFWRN
Chain of 168 GPCRs (Homo sapiens, UniProt Q16581) (Q16581 whole entry): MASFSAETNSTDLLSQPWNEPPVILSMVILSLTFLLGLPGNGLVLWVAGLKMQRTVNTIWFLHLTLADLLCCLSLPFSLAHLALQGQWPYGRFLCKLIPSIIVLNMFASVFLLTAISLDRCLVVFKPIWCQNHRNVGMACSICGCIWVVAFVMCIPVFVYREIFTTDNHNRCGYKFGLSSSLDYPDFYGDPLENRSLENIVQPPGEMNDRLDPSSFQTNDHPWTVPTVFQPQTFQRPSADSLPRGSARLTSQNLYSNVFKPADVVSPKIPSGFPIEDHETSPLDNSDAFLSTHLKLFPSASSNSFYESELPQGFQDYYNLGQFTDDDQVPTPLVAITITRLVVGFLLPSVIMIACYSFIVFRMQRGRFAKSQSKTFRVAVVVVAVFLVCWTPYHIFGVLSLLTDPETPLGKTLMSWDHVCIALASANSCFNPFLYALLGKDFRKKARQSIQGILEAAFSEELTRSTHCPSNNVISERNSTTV
Chain of 168 GPCRs (Homo sapiens, UniProt P32241) (P32241 31-457): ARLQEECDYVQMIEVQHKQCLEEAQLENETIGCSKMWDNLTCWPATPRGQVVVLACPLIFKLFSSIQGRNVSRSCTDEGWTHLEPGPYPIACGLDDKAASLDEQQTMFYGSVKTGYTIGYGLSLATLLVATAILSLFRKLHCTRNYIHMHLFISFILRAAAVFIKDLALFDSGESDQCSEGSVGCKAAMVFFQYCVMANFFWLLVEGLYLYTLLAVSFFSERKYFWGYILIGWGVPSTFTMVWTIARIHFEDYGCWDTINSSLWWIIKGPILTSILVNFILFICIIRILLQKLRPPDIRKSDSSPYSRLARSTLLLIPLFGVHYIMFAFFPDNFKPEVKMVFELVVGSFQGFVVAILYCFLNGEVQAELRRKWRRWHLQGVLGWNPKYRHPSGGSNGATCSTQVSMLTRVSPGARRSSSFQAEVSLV
Chain of 168 GPCRs (Homo sapiens, UniProt O43193) (O43193 whole entry): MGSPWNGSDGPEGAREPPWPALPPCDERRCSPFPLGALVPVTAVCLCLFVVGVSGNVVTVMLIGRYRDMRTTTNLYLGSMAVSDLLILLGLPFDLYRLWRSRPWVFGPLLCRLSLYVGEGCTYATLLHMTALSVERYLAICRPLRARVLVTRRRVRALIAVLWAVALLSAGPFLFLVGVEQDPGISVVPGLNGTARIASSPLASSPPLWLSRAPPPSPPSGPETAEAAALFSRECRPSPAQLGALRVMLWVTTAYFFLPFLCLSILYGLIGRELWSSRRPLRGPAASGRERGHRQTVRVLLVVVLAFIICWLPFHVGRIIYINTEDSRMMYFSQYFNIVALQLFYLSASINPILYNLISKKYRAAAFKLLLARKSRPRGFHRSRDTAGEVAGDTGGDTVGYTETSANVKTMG
Chain of 168 GPCRs (Homo sapiens, UniProt P08912) (P08912 whole entry): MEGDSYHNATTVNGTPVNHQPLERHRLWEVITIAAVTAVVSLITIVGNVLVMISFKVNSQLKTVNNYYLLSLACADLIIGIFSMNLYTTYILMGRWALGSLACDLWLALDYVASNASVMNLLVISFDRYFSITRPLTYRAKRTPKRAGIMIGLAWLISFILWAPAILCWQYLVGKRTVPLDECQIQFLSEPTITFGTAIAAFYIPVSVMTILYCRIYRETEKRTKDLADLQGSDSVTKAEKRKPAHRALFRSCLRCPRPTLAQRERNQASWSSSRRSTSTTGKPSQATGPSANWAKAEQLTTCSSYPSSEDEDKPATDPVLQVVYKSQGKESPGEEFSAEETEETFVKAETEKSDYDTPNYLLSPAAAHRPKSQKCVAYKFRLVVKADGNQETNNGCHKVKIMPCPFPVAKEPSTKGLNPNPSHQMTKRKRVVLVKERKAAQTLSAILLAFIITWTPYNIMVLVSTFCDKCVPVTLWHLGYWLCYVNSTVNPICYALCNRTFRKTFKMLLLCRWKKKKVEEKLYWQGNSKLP
Chain of 168 GPCRs (Homo sapiens, UniProt P35462) (P35462 whole entry): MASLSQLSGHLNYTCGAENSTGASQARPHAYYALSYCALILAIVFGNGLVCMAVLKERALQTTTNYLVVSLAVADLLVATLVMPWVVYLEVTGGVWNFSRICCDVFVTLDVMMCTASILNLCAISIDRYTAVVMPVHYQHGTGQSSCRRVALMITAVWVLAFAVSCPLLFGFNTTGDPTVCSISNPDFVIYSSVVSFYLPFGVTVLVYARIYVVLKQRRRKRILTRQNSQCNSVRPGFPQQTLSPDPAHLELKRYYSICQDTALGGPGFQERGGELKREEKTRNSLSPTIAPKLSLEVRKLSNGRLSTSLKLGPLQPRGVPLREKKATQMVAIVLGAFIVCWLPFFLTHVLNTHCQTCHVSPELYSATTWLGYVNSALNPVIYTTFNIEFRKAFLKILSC

## CNC(C)C(=O)c1ccc2c(c1)OCO2 (stereo not shown) [methylone, 3,4-methylenedioxy-N-methylcathinone]
168 GPCRs [1]; Agonist mode, 10 uM
  activity at 10 µM: 0.2%
168 GPCRs [1]; Agonist, 1 uM
  activity at 1 µM: -0.1%
168 GPCRs [2]; Agonist mode, 10 uM
  activity at 10 µM: -1%
168 GPCRs [2]; Agonist, 1 uM
  activity at 1 µM: -1.5%
168 GPCRs [3]; 1 uM
  activity at 1 µM: -0.2%
168 GPCRs [3]; 10 uM
  activity at 10 µM: -0.3%
168 GPCRs [4]; CX3CR1, Agonist mode, 10 uM
  activity at 10 µM: -0.4%
168 GPCRs [4]; CX3CR1, Agonist, 1 uM
  activity at 1 µM: 0%
168 GPCRs [5]; DRD3, Agonist mode, 10 uM
  activity at 10 µM: 2.3%
168 GPCRs [5]; DRD3, Agonist, 1 uM
  activity at 1 µM: 2.2%
168 GPCRs [6]; TACR2, Agonist mode, 10 uM
  activity at 10 µM: -3.3%
168 GPCRs [6]; TACR2, Agonist, 1 uM
  activity at 1 µM: -1.9%
168 GPCRs [7]; Agonist mode, 10 uM
  activity at 10 µM: 8.9%
168 GPCRs [7]; Agonist, 1 uM
  activity at 1 µM: -7.9%
168 GPCRs [8]; Agonist mode, 10 uM
  activity at 10 µM: 0.2%
168 GPCRs [8]; Agonist, 1 uM
  activity at 1 µM: 2.5%
168 GPCRs [9]; NPBWR2, Agonist mode, 10 uM
  activity at 10 µM: 1.35%
168 GPCRs [9]; NPBWR2, Agonist, 1 uM
  activity at 1 µM: -0.3%
168 GPCRs [10]; SSTR1, Agonist mode, 10 uM
  activity at 10 µM: -7.4%
168 GPCRs [10]; SSTR1, Agonist, 1 uM
  activity at 1 µM: -5.3%
168 GPCRs [11]; 1 uM
  activity at 1 µM: 7.2%
168 GPCRs [11]; 10 uM
  activity at 10 µM: 8.7%
168 GPCRs [12]; VIPR1, Agonist mode, 10 uM
  activity at 10 µM: 0.6%
168 GPCRs [12]; VIPR1, Agonist, 1 uM
  activity at 1 µM: 0.3%
168 GPCRs [13]; Agonist mode, 10 uM
  activity at 10 µM: -3%
168 GPCRs [13]; Agonist, 1 uM
  activity at 1 µM: -2.3%
168 GPCRs [14]; Agonist mode, 10 uM
  activity at 10 µM: -0.1%
168 GPCRs [14]; Agonist, 1 uM
  activity at 1 µM: 0.7%
168 GPCRs [15]; 1 uM
  activity at 1 µM: -0.1%
168 GPCRs [15]; 10 uM
  activity at 10 µM: 0%
168 GPCRs [16]; 1 uM
  activity at 1 µM: -1.7%
168 GPCRs [16]; 10 uM
  activity at 10 µM: -2.5%
168 GPCRs [17]; F2RL3, Agonist mode, 10 uM
  activity at 10 µM: 7%
168 GPCRs [17]; F2RL3, Agonist, 1 uM
  activity at 1 µM: 4.3%
